# Where a name gives a salt, the structure may show the parent alone. Positions of bridges follow the written chain, without caps; N, C: chain ends. Non-standard residues stand in square brackets, D forms with d. Residues, ends and D or L forms follow the SMILES beside them. Hyp = O=C(O)[C@@H]1C[C@@H](O)CN1
# Assays:
# human SSTR4 [1] = target: T1, human SSTR4 (Homo sapiens, UniProt P31391); assay type: cell-based
# human SSTR1 = human SSTR1 (Homo sapiens, UniProt P30872); assay type: cell-based
# human SSTR1, sequence (P30872 whole entry): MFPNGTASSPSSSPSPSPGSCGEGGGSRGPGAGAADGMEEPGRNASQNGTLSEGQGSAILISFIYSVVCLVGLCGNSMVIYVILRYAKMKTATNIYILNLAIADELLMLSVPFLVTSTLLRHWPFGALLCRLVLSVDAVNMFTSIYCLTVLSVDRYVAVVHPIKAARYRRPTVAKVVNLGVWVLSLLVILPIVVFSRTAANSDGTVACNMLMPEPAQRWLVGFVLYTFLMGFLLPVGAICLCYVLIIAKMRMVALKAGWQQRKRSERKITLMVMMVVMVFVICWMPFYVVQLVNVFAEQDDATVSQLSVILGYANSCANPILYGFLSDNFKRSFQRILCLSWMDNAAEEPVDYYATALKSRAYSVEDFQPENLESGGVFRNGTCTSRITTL
# human SSTR4 [2] = target: T1, human SSTR4; assay: cell-based
# SSTR4 = settings: binding assays ref 48; cited from earlier work
# C57Bl/6j mice = settings: mouse, in vivo, ip, 5 mg/kg
# T1 sequence (P31391 whole entry): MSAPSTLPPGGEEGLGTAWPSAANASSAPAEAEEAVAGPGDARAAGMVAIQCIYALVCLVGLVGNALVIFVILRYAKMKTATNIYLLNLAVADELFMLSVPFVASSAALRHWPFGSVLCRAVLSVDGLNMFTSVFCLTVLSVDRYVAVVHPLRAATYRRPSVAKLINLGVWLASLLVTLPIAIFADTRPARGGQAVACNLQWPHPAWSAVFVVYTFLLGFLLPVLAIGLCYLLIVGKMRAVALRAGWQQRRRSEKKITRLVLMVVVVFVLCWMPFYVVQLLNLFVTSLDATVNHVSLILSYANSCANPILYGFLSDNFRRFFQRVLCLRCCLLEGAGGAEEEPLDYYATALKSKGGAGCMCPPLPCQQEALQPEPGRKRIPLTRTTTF
structure (smiles),measurement,setting,value
CC(C)C[C@H](NC(=O)[C@@H]1C[C@@H](O)CN1C(=O)[C@@H]1CSSC[C@H](NC(=O)[C@@H](NC(=O)[C@@H]2CCCN2)C(C)C)C(=O)N[C@@H](C)C(=O)N[C@@H](CCCCN)C(=O)N[C@@H](Cc2ccccc2)C(=O)NCC(=O)N1)C(=O)O [Fj1A1] (H-PVCAKFGC[Hyp]L-OH; disulfide 3-8; N-terminus assumed),decrease in potency at SSTR4,human SSTR4 [1],5000 fold
CC(C)C[C@H](NC(=O)[C@@H]1C[C@@H](O)CN1C(=O)[C@@H]1CSSC[C@H](NC(=O)[C@@H](NC(=O)[C@@H]2CCCN2)C(C)C)C(=O)N[C@H](Cc2c[nH]c3ccccc23)C(=O)N[C@@H](CCCCN)C(=O)N[C@@H](C)C(=O)NCC(=O)N1)C(=O)O [Fj1A3] (H-PVC[dW]KAGC[Hyp]L-OH; disulfide 3-8; N-terminus assumed),decrease in potency at SSTR4,human SSTR4 [1],630 fold
CC(C)C[C@H](NC(=O)[C@@H]1C[C@@H](O)CN1C(=O)[C@@H]1CSSC[C@H](NC(=O)[C@@H](NC(=O)[C@@H]2CCCN2)C(C)C)C(=O)N[C@H](Cc2c[nH]c3ccccc23)C(=O)N[C@@H](CCCCN)C(=O)N[C@@H](Cc2ccccc2)C(=O)N[C@@H](C)C(=O)N1)C(=O)O [Fj1A4] (H-PVC[dW]KFAC[Hyp]L-OH; disulfide 3-8; N-terminus assumed),increase in potency at SSTR4,human SSTR4 [1],6.2 fold
CC(C)C[C@H](NC(=O)[C@@H]1CCCN1C(=O)[C@@H]1CSSC[C@H](NC(=O)[C@@H](NC(=O)[C@@H]2CCCN2)C(C)C)C(=O)N[C@H](Cc2c[nH]c3ccccc23)C(=O)N[C@@H](CCCCN)C(=O)N[C@@H](Cc2ccccc2)C(=O)NCC(=O)N1)C(=O)O [Fj1A7] (H-PVC[dW]KFGCPL-OH; disulfide 3-8; N-terminus assumed),effect on SSTR1 potency,human SSTR1,increase in SSTR1 potency
same,effect on SSTR4 potency,human SSTR4 [1],virtually no effect
CC(C)C[C@H](NC(=O)[C@@H]1C[C@@H](O)CN1C(=O)[C@@H]1CSSC[C@H](NC(=O)[C@@H](NC(=O)[C@@H]2CCCN2)C(C)C)C(=O)N[C@H](Cc2c[nH]c3ccccc23)C(=O)N[C@@H](CCCCN)C(=O)N[C@H](Cc2ccccc2)C(=O)NCC(=O)N1)C(=O)O [Fj1A8] (H-PVC[dW]K[dF]GC[Hyp]L-OH; disulfide 3-8; N-terminus assumed),decrease in potency at SSTR4,human SSTR4 [1],42 fold
"NCCCC[C@@H]1NC(=O)[C@@H](Cc2c[nH]c3ccccc23)NC(=O)[C@@H](N)CSSC[C@@H](C(=O)O)NC(=O)CNC(=O)[C@H](Cc2ccccc2)NC1=O [Fj1A9, Cys3-D-Trp4-Lys5-Phe6-Gly7-Cys8] (H-C[dW]KFGC-OH; disulfide 1-6; N-terminus assumed)",decrease in potency at SSTR4,human SSTR4 [1],47 fold
CC(C)C[C@H](NC(=O)[C@@H]1C[C@@H](O)CN1C(=O)[C@@H]1CSSC[C@H](N)C(=O)N[C@H](Cc2c[nH]c3ccccc23)C(=O)N[C@@H](CCCCN)C(=O)N[C@@H](Cc2ccccc2)C(=O)NCC(=O)N1)C(=O)O [Fj1A10] (H-C[dW]KFGC[Hyp]L-OH; disulfide 1-6; N-terminus assumed),decrease in potency at SSTR4,human SSTR4 [1],13 fold
CC(C)[C@H](NC(=O)[C@@H]1CCCN1)C(=O)N[C@H]1CSSC[C@@H](C(=O)O)NC(=O)CNC(=O)[C@H](Cc2ccccc2)NC(=O)[C@H](CCCCN)NC(=O)[C@@H](Cc2c[nH]c3ccccc23)NC1=O [Fj1A11] (H-PVC[dW]KFGC-OH; disulfide 3-8; N-terminus assumed),effect on SSTR4 potency,human SSTR4 [1],virtually equipotent
CC(C)C[C@H](NC(=O)[C@@H]1C[C@@H](O)CN1C(=O)[C@@H]1CSSC[C@H](NC(=O)[C@H](Cc2ccccc2)NC(=O)[C@@H](N)CC(C)C)C(=O)N[C@H](Cc2c[nH]c3ccccc23)C(=O)N[C@@H](CCCCN)C(=O)N[C@@H](Cc2ccccc2)C(=O)NCC(=O)N1)C(=O)O [Fj1A13] (H-LFC[dW]KFGC[Hyp]L-OH; disulfide 3-8; N-terminus assumed),increase in potency at SSTR4,human SSTR4 [1],11 fold
CC(C)[C@H](NC(=O)[C@@H]1CCCN1)C(=O)N[C@H]1CSSC[C@@H](C(=O)N[C@@H](Cc2c[nH]c3ccccc23)C(=O)O)NC(=O)CNC(=O)[C@H](Cc2ccccc2)NC(=O)[C@H](CCCCN)NC(=O)[C@@H](Cc2c[nH]c3ccccc23)NC1=O [Fj1A14] (H-PVC[dW]KFGCW-OH; disulfide 3-8; N-terminus assumed),increase in potency at SSTR4,human SSTR4 [1],85 fold
CC(C)C[C@H](NC(=O)[C@@H]1C[C@@H](O)CN1C(=O)[C@@H]1CSSC[C@H](NC(=O)[C@@H](NC(=O)[C@@H]2CCCN2)C(C)C)C(=O)N[C@H](Cc2c[nH]c3ccccc23)C(=O)N[C@@H](CCCCN)C(=O)N[C@@H](Cc2ccccc2)C(=O)N[C@@H](CO)C(=O)N1)C(=O)O [Fj1A15] (H-PVC[dW]KFSC[Hyp]L-OH; disulfide 3-8; N-terminus assumed),increase in potency at SSTR4,human SSTR4 [1],14 fold
CC(C)C[C@H](NC(=O)[C@@H]1C[C@@H](O)CN1C(=O)[C@@H]1CSSC[C@H](NC(=O)[C@@H](NC(=O)[C@@H]2CCCN2)C(C)C)C(=O)N[C@H](Cc2c[nH]c3ccccc23)C(=O)N[C@@H](CCCCN)C(=O)N[C@@H](Cc2ccccc2)C(=O)N[C@@H]([C@@H](C)O)C(=O)N1)C(=O)O [Fj1A16] (H-PVC[dW]KFTC[Hyp]L-OH; disulfide 3-8; N-terminus assumed),effect on SSTR1 potency,human SSTR1,slight increase in SSTR1 activity
same,effect on SSTR4 potency,human SSTR4 [1],retained the SSTR4 potency of Fj1
CC(C)C[C@H](NC(=O)[C@@H]1C[C@@H](O)CN1C(=O)[C@@H]1CSSC[C@H](NC(=O)[C@@H](NC(=O)[C@@H]2CCCN2)C(C)C)C(=O)N[C@H](Cc2c[nH]c3ccccc23)C(=O)N[C@@H](CCCCN)C(=O)N[C@@H](Cc2ccccc2)C(=O)N[C@@H](CC(N)=O)C(=O)N1)C(=O)O [Fj1A17] (H-PVC[dW]KFNC[Hyp]L-OH; disulfide 3-8; N-terminus assumed),increase in potency at SSTR4,human SSTR4 [1],6.8 fold
CC(C)[C@H](NC(=O)[C@@H]1CCCN1)C(=O)N[C@H]1CSSC[C@@H](C(=O)N[C@@H](Cc2c[nH]c3ccccc23)C(=O)O)NC(=O)[C@H](CO)NC(=O)[C@H](Cc2ccccc2)NC(=O)[C@H](CCCCN)NC(=O)[C@@H](Cc2c[nH]c3ccccc23)NC1=O [Fj1A18] (H-PVC[dW]KFSCW-OH; disulfide 3-8; N-terminus assumed),effect on SSTR4 potency,human SSTR4 [1],well tolerated
CC(C)[C@H](NC(=O)[C@@H]1CCCN1)C(=O)N[C@H]1CSSC[C@@H](C(=O)N[C@@H](Cc2c[nH]c3ccccc23)C(=O)O)NC(=O)[C@H]([C@@H](C)O)NC(=O)[C@H](Cc2ccccc2)NC(=O)[C@H](CCCCN)NC(=O)[C@@H](Cc2c[nH]c3ccccc23)NC1=O [Fj1A19] (H-PVC[dW]KFTCW-OH; disulfide 3-8; N-terminus assumed),effect on SSTR4 potency,human SSTR4 [1],slight decrease in SSTR4 potency
CC(C)[C@H](NC(=O)[C@@H]1CCCN1)C(=O)N[C@H]1CSSC[C@@H](C(=O)N[C@@H](Cc2c[nH]c3ccccc23)C(=O)O)NC(=O)[C@H](CC(N)=O)NC(=O)[C@H](Cc2ccccc2)NC(=O)[C@H](CCCCN)NC(=O)[C@@H](Cc2c[nH]c3ccccc23)NC1=O [Fj1A20] (H-PVC[dW]KFNCW-OH; disulfide 3-8; N-terminus assumed),effect on SSTR4 potency,human SSTR4 [1],slight decrease in SSTR4 potency
CC(C)[C@H](NC(=O)[C@@H]1CSSC[C@H](NC(=O)[C@H](CC(N)=O)NC(=O)[C@@H](N)Cc2ccc(O)cc2)C(=O)N[C@@H](Cc2c[nH]cn2)C(=O)N[C@H](Cc2c[nH]c3ccccc23)C(=O)N[C@@H](CCCCN)C(=O)N[C@@H]([C@@H](C)O)C(=O)N1)C(=O)O [Fj2] (H-YNCH[dW]KTCV-OH; disulfide 3-8; N-terminus assumed),EC50,human SSTR4 [2],2000 nM
Cc1ccc(S(=O)(=O)N[C@@H](CCN)C(=O)N[C@@H](Cc2ccccc2)C(N)=O)c2ccccc12 [J-2156],selectivity for SSTR4 over SSTR1,SSTR4,approximately 360 fold
same,selectivity for SSTR4 over SSTR5,SSTR4,~390 fold
"CN1CC[C@]23c4c5ccc(O)c4O[C@H]2[C@@H](O)C=C[C@H]3[C@H]1C5 [morphine, morphine sulfate]",duration of action,C57Bl/6j mice,shorter
same,peak efficacy,C57Bl/6j mice,higher peak efficacy than Fj1

# — article PMC12663243 (Scientific Reports, 2025)
